We go through one compound from patent publication US20100184946A1, “Preparation of Fine Particles” (priority 2007, published 2010).

The series in a line: Particle form by X-ray powder diffraction (XRPD). The conditions noted are these: starting material before the process; product after freeze drying. Type of series: physicochemical. As for the experimental part: The physical form of the paclitaxel particles was measured using X-ray powder diffraction method (“XRPD”) before the process (i.e. the starting material) and again after the product of the process had been freeze dried.

Structures are written as SMILES.

On to `CC(=O)O[C@H]1C(=O)[C@@]2(C)[C@H]([C@H](OC(=O)c3ccccc3)[C@]3(O)C[C@H](OC(=O)[C@H](O)[C@@H](NC(=O)c4ccccc4)c4ccccc4)C(C)=C1C3(C)C)[C@]1(OC(C)=O)CO[C@@H]1C[C@@H]2O` [paclitaxel], for which the “physical form (XRPD)” value is “crystal structure ordering”.
